# Activity calls are given as the source filed them. The rule behind the calls is not given here.
# Key:
# NB-4 [1] = test: Cytotoxicity against human NB4 cells after 24 hrs by MTT assay; type: functional, cell-based; conditions: NB-4, 24 h
# HL-60 [2] = test: Cytotoxicity against human HL60 cells after 24 hrs by MTT assay; type: functional, cell-based; conditions: HL-60, 24 h
# HeLa [3] = test: Cytotoxicity against human HeLa cells after 24 hrs by MTT assay; type: functional, cell-based
# NB-4 [4] = test: Cytotoxicity against human NB4 cells after 48 hrs by MTT assay; type: functional, cell-based; conditions: NB-4, 48 h
# HL-60 [5] = test: Cytotoxicity against human HL60 cells after 48 hrs by MTT assay; type: functional, cell-based; conditions: HL-60, 48 h
# HeLa [6] = test: Cytotoxicity against human HeLa cells after 48 hrs by MTT assay; type: functional, cell-based
# SGC-7901 = test: Cytotoxicity against human SGC7901 cells after 48 hrs by MTT assay; type: functional, cell-based; conditions: SGC-7901, 48 h
# HEK293 = test: Cytotoxicity against HEK293 cells after 48 hrs by MTT assay; type: cell-based; conditions: Homo sapiens, HEK293, 48 h
# NB-4 [7] = test: Induction of mitochondrial membrane potential loss in human NB4 cells at 0.6 uM after 6 hrs by JC1 staining based flow cytometry (reference value: 27.7%); type: functional
# NB-4 [8] = test: Cytotoxicity against human NB4 cells assessed as reduction in cell viability up to 2.4 uM up to 8 hrs by MTT assay; type: functional, cell-based
# NB-4 [9] = test: Cytotoxicity against human NB4 cells assessed as reduction in cell viability at 1.2 uM after 24 hrs in presence of PDHC-E2 co-enzyme LA by trypan blue assay; type: functional, cell-based
# [10] = target: T1, Dihydrolipoyllysine-residue acetyltransferase component of pyruvate dehydrogenase complex, mitochondrial (Homo sapiens) (UniProt P10515); test: Inhibition of PDHC-E2 activity in human NB4 cells up to 2.4 uM after 3 hrs; type: cell-based
# T1 sequence (whole entry): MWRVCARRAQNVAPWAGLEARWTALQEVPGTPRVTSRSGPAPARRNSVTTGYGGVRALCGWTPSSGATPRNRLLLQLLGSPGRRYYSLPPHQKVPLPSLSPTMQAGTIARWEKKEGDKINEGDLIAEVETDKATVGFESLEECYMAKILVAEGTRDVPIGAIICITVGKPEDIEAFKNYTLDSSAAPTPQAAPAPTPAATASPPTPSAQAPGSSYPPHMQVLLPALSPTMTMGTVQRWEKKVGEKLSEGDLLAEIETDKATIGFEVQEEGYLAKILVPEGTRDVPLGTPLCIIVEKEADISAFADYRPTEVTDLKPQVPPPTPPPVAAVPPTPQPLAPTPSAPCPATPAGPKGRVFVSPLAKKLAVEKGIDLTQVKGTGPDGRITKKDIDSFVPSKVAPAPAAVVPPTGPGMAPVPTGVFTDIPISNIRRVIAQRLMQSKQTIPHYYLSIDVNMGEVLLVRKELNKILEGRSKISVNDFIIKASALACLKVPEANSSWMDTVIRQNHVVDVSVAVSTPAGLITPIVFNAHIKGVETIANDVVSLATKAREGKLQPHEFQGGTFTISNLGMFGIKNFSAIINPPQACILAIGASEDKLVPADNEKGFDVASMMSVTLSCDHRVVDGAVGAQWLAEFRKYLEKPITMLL
# NB-4 [11] = test: Cytotoxicity against human NB4 cells assessed as reduction in cell viability at 1 to 1.2 uM after 24 hrs in presence of DMSA by trypan blue assay; type: functional, cell-based
# NB-4 [12] = test: Induction of mitochondrial membrane potential loss in human NB4 cells assessed as decrease in intracellular ATP level at 0.6 to 1.2 uM after 24 hrs; type: functional, cell-based
# Rattus norvegicus [13] = species: Rattus norvegicus; test: Induction of mitochondrial membrane potential loss in isolated Wistar rat mitochondria assessed as stationary increase phase rate constant at 50 uM using pyruvate as substrate up to 3 hrs by microcalorimetry; type: functional
# Rattus norvegicus [14] = species: Rattus norvegicus; test: Induction of mitochondrial membrane potential loss in isolated Wistar rat mitochondria assessed as decline phase rate constant at 50 uM using pyruvate as substrate up to 3 hrs by microcalorimetry; type: functional
# Rattus norvegicus [15] = species: Rattus norvegicus; test: Induction of mitochondrial membrane potential loss in isolated Wistar rat mitochondria assessed as decline phase rate constant at 25 uM using pyruvate as substrate up to 3 hrs by microcalorimetry (reference value: -24.13 to -20.47 10^-3/min); type: functional
# Rattus norvegicus [16] = species: Rattus norvegicus; test: Induction of mitochondrial membrane potential loss in isolated Wistar rat mitochondria assessed as maximum power output time at 50 uM using pyruvate as substrate up to 3 hrs by microcalorimetry; type: functional
# Rattus norvegicus [17] = species: Rattus norvegicus; test: Induction of mitochondrial membrane potential loss in isolated Wistar rat mitochondria assessed as maximum power output time at 25 uM using pyruvate as substrate up to 3 hrs by microcalorimetry (reference value: 45.07 to 49.89 hrs); type: functional
# Rattus norvegicus [18] = species: Rattus norvegicus; test: Induction of mitochondrial membrane potential loss in isolated Wistar rat mitochondria assessed as total heat output at 50 uM using pyruvate as substrate up to 3 hrs by microcalorimetry; type: functional
# Rattus norvegicus [19] = species: Rattus norvegicus; test: Inhibition of ETC3 in isolated Wistar rat mitochondria assessed as decrease in oxidized cyochrome-c reduction at 50 uM incubated for 3 to 5 mins and measured for up to 3 mins
# Rattus norvegicus [20] = species: Rattus norvegicus; test: Inhibition of ETC4 in isolated Wistar rat mitochondria assessed as decrease in cyochrome-c oxidation at 5 to 15 uM incubated for 3 to 5 mins and measured for up to 3 mins
# NB-4 [21] = test: Induction of ROS generation in human NB4 cells up to 1.2 uM up to 24 hrs by DHE staining based flow cytometry; type: functional, cell-based
# NB-4 [22] = test: Reduction in cell viability in human NB4 cells up to 2.4 uM up to 24 hrs by MTT assay; type: functional, cell-based
# Rattus norvegicus [23] = species: Rattus norvegicus; test: Induction of mitochondrial swelling in isolated Wistar rat mitochondria at 30 uM in presence of EGTA; type: functional
# Rattus norvegicus [24] = species: Rattus norvegicus; test: Induction of inner mitochondrial membrane permeabilization in isolated Wistar rat mitochondria assessed as K+ permeabilization at 5 to 75 uM measured for 10 to 30 mins; type: functional
# NB-4 [25] = test: Induction of apoptosis in human NB4 cells assessed as decrease in cell size at 0.6 to 1.2 uM after 24 hrs by Hoechst 33342/propidium iodide staining based confocal microscopic method; type: functional
# NB-4 [26] = test: Induction of apoptosis in human NB4 cells assessed as DNA fragmentation at 0.6 to 1.2 uM after 24 hrs by Hoechst 33342/propidium iodide staining based confocal microscopic method; type: functional, cell-based
# NB-4 [27] = test: Induction of apoptosis in human NB4 cells assessed as live cells after 24 hrs by Annexin V-FITC/propidium iodide staining based flow cytometry (reference value: 92%); type: functional
# NB-4 [28] = test: Induction of apoptosis in human NB4 cells assessed as late apoptotic cells after 24 hrs by Annexin V-FITC/propidium iodide staining based flow cytometry (reference value: 2.9%); type: functional
# NB-4 [29] = test: Induction of apoptosis in human NB4 cells assessed as early apoptotic cells after 24 hrs in presence of Z-VAD-fmk by Annexin V-FITC/propidium iodide staining based flow cytometry (reference value: 5%); type: functional
# NB-4 [30] = test: Induction of apoptosis in human NB4 cells assessed as late apoptotic cells after 24 hrs in presence of Nec-1 by Annexin V-FITC/propidium iodide staining based flow cytometry (reference value: 2.9%); type: functional
# NB-4 [31] = test: Induction of apoptosis in human NB4 cells assessed as necrotic cells after 24 hrs in presence of Nec-1 by Annexin V-FITC/propidium iodide staining based flow cytometry (reference value: 0.1%); type: functional
structure (smiles),measurement,setting,value
O=C(CC[P+](c1ccccc1)(c1ccccc1)c1ccccc1)Nc1ccc([As]2SCCCS2)cc1.[Cl-],IC50,NB-4 [1],650 nM
same,IC50,HL-60 [2],3580 nM
same,IC50,HeLa [3],9050 nM
same,IC50,NB-4 [4],510 nM
same,IC50,HL-60 [5],3230 nM
same,IC50,HeLa [6],3910 nM
same,IC50,SGC-7901,990 nM
same,IC50,HEK293,2080 nM
same,Activity,NB-4 [7],81.5%
same,Activity,NB-4 [8],inactive
same,Activity,NB-4 [9],inactive
same,inhibition,[10],Active
same,Activity,NB-4 [11],inactive
same,Activity,NB-4 [12],Active
same,K,Rattus norvegicus [13],0.46 ×10⁻³ /min
same,K,Rattus norvegicus [14],-9.35 ×10⁻³ /min
same,K,Rattus norvegicus [15],-14.1 ×10⁻³ /min
same,TIME,Rattus norvegicus [16],47.6 h
same,TIME,Rattus norvegicus [17],45.4 h
same,Activity,Rattus norvegicus [18],10.2 J
same,inhibition,Rattus norvegicus [19],Active
same,inhibition,Rattus norvegicus [20],Active
same,Activity,NB-4 [21],Active
same,Activity,NB-4 [22],Active
same,Activity,Rattus norvegicus [23],inactive
same,Activity,Rattus norvegicus [24],Active
same,Activity,NB-4 [25],Active
same,Activity,NB-4 [26],Active
same,Activity,NB-4 [27],69.3%
same,Activity,NB-4 [28],16.2%
same,Activity,NB-4 [29],12.7%
same,Activity,NB-4 [30],16.2%
same,Activity,NB-4 [31],1%

# — ChEMBL document CHEMBL4330144, “A mitochondria-targeted organic arsenical accelerates mitochondrial metabolic disorder and function injury” (Bioorg Med Chem, 2019)
